Test results from patent publication US20050058614A1, “Methods for the treatment of gray hair using cyclopentane(ene) heptan(en)oic acid amides” (Allergan, Inc., priority 2003, published 2005).

Experiments:
[1] = tested on: eyelashes; conditions: Lumigan ophthalmic solution applied in the FDA approved manner; cited from earlier work
[2] = tested on: gray hair; test: conversion of gray hair to original pigment on oral bimatoprost in human subjects; format: in vivo
Excerpt: A patient began taking bimatoprost as a tablet. […] A healthy person with normal blood pressure volunteers to take the medicine for the same observation as in Example 2 at the dose described above. Their hair condition is normal with no baldness. During the six month testing period, they collect in intervals the hair samples from regular daily combing. Before the testing and during the first month of testing, the hair samples collected have two types, namely completely dark brown or completely gray. At around 50 days into the testing period, a new type of hair, partly dark brown and partly gray, begins to appear in the hair samples; they represent about 3% of the gray hairs. In this subject, the gray hairs represent about 25% of their total hairs in the samples collected. It is noted that the dark brown part of the new type of hair is always associated with the lower part of the hair shaft. This is easily identifiable because the hair follicles are distinguishable at one end of hair shafts. The quality and thickness of the new type of hair is very similar to the other types of hairs of this subject. The ratio of length of the dark brown part to that of the gray part of the new type of hair varies from 1:5 to 4:1 in the samples collected during the five-month period. This varying ratio may reflect the stages of the growth cycle of each hair follicle examined. The observation was discontinued at the end of five months.

[3] = untoward effects during the observation period; format: in vivo, human; conditions: healthy person, oral, same dose as Example 1
Excerpt: (§1) A healthy subject with normal blood pressure volunteers to take the medicine for observation on hair growth promoting activity at the same dose reported in Example 1. Before taking the medicine they have few hairs left in the frontoparietal area of the head. Three months after taking the medicine, they begin to note an increase of hair density in the affected area. […] The response to the medicine is more sensitive in areas with most recent hair loss. […] The observation is terminated at the end of six months.
A healthy person with normal blood pressure volunteers to take the medicine for the same observation as in Example 2 at the dose described above. Their hair condition is normal with no baldness. During the six month testing period, they collect in intervals the hair samples from regular daily combing. Before the testing and during the first month of testing, the hair samples collected have two types, namely completely dark brown or completely gray. At around 50 days into the testing period, a new type of hair, partly dark brown and partly gray, begins to appear in the hair samples; they represent about 3% of the gray hairs. In this subject, the gray hairs represent about 25% of their total hairs in the samples collected. It is noted that the dark brown part of the new type of hair is always associated with the lower part of the hair shaft. […]

[4] = tested on: hair in the frontoparietal area of the head; test: observation on hair growth promoting activity on oral bimatoprost; format: in vivo, human; conditions: healthy person
Excerpt: as §1

For `CCNC(=O)CCC/C=C\C[C@@H]1[C@@H](/C=C/[C@@H](O)CCc2ccccc2)[C@H](O)C[C@@H]1O` [bimatoprost, cyclopentane N-ethyl heptanamide-5-cis-2-(3α-hydroxy-5-phenyl-1-trans-pentenyl)-3,5-dihydroxy, [1α,2β,3α,5α]], the growth of eyelashes [1] is listed as “effective to increase the growth of eyelashes”, the “time until new type of hair, partly dark brown and partly gray, appears in hair samples” value ([2]; healthy person, no baldness, oral, same dose as Example 1, hair samples from daily combing) is listed as “around 50 days” and the “new type of hair (partly dark brown, partly gray) as share of the gray hairs” value ([2]; healthy person, oral, same dose as Example 1, gray hairs about 25% of total hairs) is listed as “about 3%”. The “gray hairs turned into the original pigment” value ([2]; patient, oral tablet 2 x 100 mg per dose, 3 doses per day, four months) was “a significant portion of their gray hairs had gradually turned into the original pigment or dark brown color”, the untoward effects ([3]; observation discontinued at five months) was “No untoward effects were reported” and the untoward effects ([3]; six months observation) was “does not experience any untoward effects”. For the same compound, the “time until increase of hair density in the affected area is noted” value ([4]; few hairs in frontoparietal area, same dose as Example 1) was “Three”, the “colour of the newly grown hairs in the affected area” value ([4]; same dose as Example 1) was “mostly dark brown” and the “overall increase of the hair density in the affected area” value ([4]; same dose as Example 1, six months) was “very significant”. For the same compound, the hair cut frequency ([4]; same dose as Example 1, three to six months of the testing period) was “increase the hair cut frequency to once a month from once every two months”.
